Test results published in patent publication US8969565B2, “Imidazo[1,2-b]pyridazine-based compounds, compositions comprising them, and methods of their use” (Lexicon Pharmaceuticals, Inc., priority 2012, dated 2015).

Key:
[1] = target: T1, AAK1 (Homo sapiens, UniProt Q2M2I8); experiment: HEK281 cell-based assay (phospho-mu2 Western blot in transfected HEK293F cells); conditions: 3 hours incubation, read-out: CBA IC50
T1 construct: HA; expressed in transfected cells; host or cells: HEK293F
Outline: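 HEK293F cells co-transfected with full-length human AAK1/HA and Flag/AP2M1 were treated next day with 5 compound concentrations (3-fold dilutions) in DMEM+0.5% FBS for 3 hours at 37° C. Lysates were Western blotted for phospho-mu2, with total mu2 detected by anti-Flag.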

[2] = target: T1, AAK1; experiment: P81 filter plate assay; assay type: biochemical; conditions: full-length human AAK1, Mu2 substrate
Protocol: Compounds were serially diluted into a Labcyte LDV plate (Labcyte, cat#LP-0200) using a Mutiprobe (PerkinElmer) and Biomek FX (Beckman Coulter) so that the highest compound concentration was at 96 μM. Compounds were then pinged (75 nL per well) into a Greiner 384-well reaction plate (Greiner, #781076) using an ECHO 550 Liquid Handler (Labcyte). A total of 12 μl reaction buffer (IMAP buffer containing Tween and DTT, from Molecular Devices) was then added to each well of columns 1 and 13 for the negative controls and 12 μl of 2×AAK1 (0.2 nM full-length human protein, NCBI accession no. NP_055726.2) was added to the remaining wells. Enzyme was then pre-incubated with compound for 10 minutes at RT. Reactions were initiated upon Minitrak (PerkinElmer) addition of 12 μl substrate mix containing 2×Mu2 (0.2 μM, full length human protein), 2× cold ATP (2 μM), and 1.3 μCi of hot ^33P-ATP. Reactions proceeded for one hour at RT. Meanwhile, Millipore 384-well P81 filter plates (Millipore, catalog #MZPHNOW10) were placed on a plate washer (Zoom ZW, from Titertek) and pre-wet with 50 μl 1% phosphoric acid. Kinase reactions were then stopped upon addition of 24 μl of 2% phosphoric acid to each well and the Minitrak was then used to transfer 40 μl from each well into the pre-wet Millipore 384-well P81 filter plates. Reaction mixtures were incubated for 10 minutes at RT in the P81 plates, followed by washing five times with 100 μl/well of 1% phosphoric acid using the Zoom filter washer. The bottom of each filter plate was sealed followed by addition of 20 μl Microscint 40 to each well, sealing the top of the plates with Flashplate cover, and then waiting one hour until reading on the TopCount (PerkinElmer).

T1 sequence (Q2M2I8 1-863 isoform Q2M2I8-2): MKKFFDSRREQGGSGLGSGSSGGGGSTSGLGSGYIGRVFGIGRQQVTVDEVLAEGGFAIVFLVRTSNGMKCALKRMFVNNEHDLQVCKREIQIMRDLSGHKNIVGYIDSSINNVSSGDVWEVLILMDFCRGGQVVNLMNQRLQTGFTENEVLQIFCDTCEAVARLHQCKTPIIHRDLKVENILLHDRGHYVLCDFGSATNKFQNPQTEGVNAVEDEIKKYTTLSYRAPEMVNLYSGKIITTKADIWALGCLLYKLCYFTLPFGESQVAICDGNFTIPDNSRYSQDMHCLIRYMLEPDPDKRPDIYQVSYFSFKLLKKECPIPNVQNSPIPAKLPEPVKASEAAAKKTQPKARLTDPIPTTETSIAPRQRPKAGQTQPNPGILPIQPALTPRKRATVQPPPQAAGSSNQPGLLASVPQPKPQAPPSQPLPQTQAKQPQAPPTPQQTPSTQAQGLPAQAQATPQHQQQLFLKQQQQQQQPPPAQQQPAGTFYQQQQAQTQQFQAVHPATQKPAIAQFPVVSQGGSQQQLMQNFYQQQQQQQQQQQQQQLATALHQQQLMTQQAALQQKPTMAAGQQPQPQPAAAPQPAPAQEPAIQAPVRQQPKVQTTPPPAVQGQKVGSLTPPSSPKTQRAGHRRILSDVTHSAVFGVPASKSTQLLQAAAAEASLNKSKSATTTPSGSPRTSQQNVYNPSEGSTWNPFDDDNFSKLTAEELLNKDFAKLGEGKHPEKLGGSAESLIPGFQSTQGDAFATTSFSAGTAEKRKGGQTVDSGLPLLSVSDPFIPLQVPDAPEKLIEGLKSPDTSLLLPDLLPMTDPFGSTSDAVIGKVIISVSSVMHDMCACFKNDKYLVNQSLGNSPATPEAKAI

Compound | IC50 [1] [nM] | IC50 [2] [nM]
COCCOC(=O)N1CCN(c2ccc3ncc(-c4cccnc4OC)n3n2)CC1 [2-methoxyethyl 4-(3-(2-methoxypyridin-3-yl)imidazo[1,2-b]pyridazin-6-yl)piperazine-1-carboxylate] | ≤ 100 | ≤ 10
CC(C)(C)CC(=O)N1CCN(c2ccc3ncc(-c4ccccc4)n3n2)CC1 [3,3-dimethyl-1-(4-(3-phenylimidazo[1,2-b]pyridazin-6-yl)piperazin-1-yl)butan-1-one] | ≤ 100 | ≤ 10
NCc1ccc(-c2cnc3ccc(NCC4CCCN4CC(F)(F)F)nn23)cc1 (centres unmarked) [3-(4-(aminomethyl)phenyl)-N-((1-(2,2,2-trifluoroethyl)pyrrolidin-2-yl)methyl)imidazo[1,2-b]pyridazin-6-amine] | ≤ 100 | ≤ 10
Oc1cccc(-c2cnc3ccc(NCCOC4CCCC4)nn23)c1 [3-(6-((2-(cyclopentyloxy)ethyl)amino)imidazo[1,2-b]pyridazin-3-yl)phenol] | ≤ 1000 | ≤ 10
c1cc2c(cc1-c1cnc3ccc(NCCOC4CCCC4)nn13)OCO2 [3-(benzo[d][1,3]dioxol-5-yl)-N-(2-(cyclopentyloxy)ethyl)imidazo[1,2-b]pyridazin-6-amine] | ≤ 1000 | ≤ 100
CC(C)(C)OC(=O)N1CCN(c2ccc3ncc(I)n3n2)CC1 [4-(3-Iodo-imidazo[1,2-b]pyridazin-6-yl)-piperazine-1-carboxylic acid tert-butyl ester] | ≤ 100 | ≤ 10
N#Cc1ccc(-c2cnc3ccc(NCCOC4CCCC4)nn23)s1 [5-(6-((2-(cyclopentyloxy)ethyl)amino)imidazo[1,2-b]pyridazin-3-yl)thiophene-2-carbonitrile] | ≤ 100 | ≤ 10
COc1ccccc1-c1cnc2ccc(N3CCN(C(=O)N4CCCCC4)CC3)nn12 [(4-(3-(2-methoxyphenyl)imidazo[1,2-b]pyridazin-6-yl)piperazin-1-yl)(piperidin-1-yl)methanone] | ≤ 100 | ≤ 10
COc1ccccc1-c1cnc2ccc(N3CCN(C(=O)N4CCCC4)CC3)nn12 [(4-(3-(2-methoxyphenyl)imidazo[1,2-b]pyridazin-6-yl)piperazin-1-yl)(pyrrolidin-1-yl)methanone] | ≤ 100 | ≤ 10
COc1ncccc1-c1cnc2ccc(N3CCN(C(=O)N4CCCCC4)CC3)nn12 [(4-(3-(2-methoxypyridin-3-yl)imidazo[1,2-b]pyridazin-6-yl)piperazin-1-yl)(piperidin-1-yl)methanone] | ≤ 100 | ≤ 10
COc1ncccc1-c1cnc2ccc(N3CCN(C(=O)N4CCCC4)CC3)nn12 [(4-(3-(2-methoxypyridin-3-yl)imidazo[1,2-b]pyridazin-6-yl)piperazin-1-yl)(pyrrolidin-1-yl)methanone] | ≤ 100 | ≤ 10
COc1cnccc1-c1cnc2ccc(N3CCN(C(=O)N4CCCC4)CC3)nn12 [(4-(3-(3-methoxypyridin-4-yl)imidazo[1,2-b]pyridazin-6-yl)piperazin-1-yl)(pyrrolidin-1-yl)methanone] | ≤ 100 | ≤ 10
O=C(N1CCCCC1)N1CCN(c2ccc3ncc(-c4ccccc4)n3n2)CC1 [(4-(3-phenylimidazo[1,2-b]pyridazin-6-yl)piperazin-1-yl)(piperidin-1-yl)methanone] | ≤ 100 | ≤ 10
CC(C)OC(=O)N(C)[C@H]1CCN(c2ccc3ncc(-c4cccnc4OC(F)F)n3n2)C1 [(S)-isopropyl (1-(3-(2-(difluoromethoxy)pyridin-3-yl)imidazo[1,2-b]pyridazin-6-yl)pyrrolidin-3-yl)(methyl)carbamate] |  | ≤ 10
CC(C)OC(=O)N(C)[C@H]1CCN(c2ccc3ncc(-c4ccncc4)n3n2)C1 [(S)-isopropyl methyl(1-(3-(pyridin-4-yl)imidazo[1,2-b]pyridazin-6-yl)pyrrolidin-3-yl)carbamate] |  | ≤ 100
CCCOC(=O)N1CCC[C@H]1CNc1ccc2ncc(Br)n2n1 [(S)-propyl 2-(((3-bromoimidazo[1,2-b]pyridazin-6-yl)amino)methyl)pyrrolidine-1-carboxylate] |  | ≤ 10

Compound | IC50 [1] [nM] | IC50 [2] [nM]
CN(C(=O)OC(C)(C)C)[C@H]1CCN(c2ccc3ncc(-c4cccnc4)n3n2)C1 [(S)-tert-butyl methyl(1-(3-(pyridin-3-yl)imidazo[1,2-b]pyridazin-6-yl)pyrrolidin-3-yl)carbamate] |  | ≤ 10
CN(C(=O)C1CCCC1)[C@H]1CCN(c2ccc3ncc(-c4cccnc4O)n3n2)C1 [Cyclopentanecarboxylic acid {(S)-1-[3-(2-hydroxy-pyridin-3-yl)-imidazo[1,2-b]pyridazin-6-yl]-pyrrolidin-3-yl}-methyl-amide] |  | ≤ 100
COC(=O)c1cnn(-c2ccc3ncc(Br)n3n2)c1 [Methyl 1-(3-bromoimidazo[1,2-b]pyridazin-6-yl)-1H-pyrazole-4-carboxylate] |  | ≤ 100
COc1cccc(-c2cnc3ccc(NCCOC4CCCC4)nn23)c1 [N-(2-(cyclopentyloxy)ethyl)-3-(3-methoxyphenyl)imidazo[1,2-b]pyridazin-6-amine] |  | ≤ 100
Cc1csc(-c2cnc3ccc(NCCOC4CCCC4)nn23)c1 [N-(2-(cyclopentyloxy)ethyl)-3-(4-methylthiophen-2-yl)imidazo[1,2-b]pyridazin-6-amine] |  | ≤ 100
Cc1ccc(-c2cnc3ccc(NCCOC4CCCC4)nn23)s1 [N-(2-(cyclopentyloxy)ethyl)-3-(5-methylthiophen-2-yl)imidazo[1,2-b]pyridazin-6-amine] |  | ≤ 100
c1csc(-c2cnc3ccc(NCCOC4CCCC4)nn23)c1 [N-(2-(cyclopentyloxy)ethyl)-3-(thiophen-2-yl)imidazo[1,2-b]pyridazin-6-amine] |  | ≤ 10
c1cc(-c2cnc3ccc(NCCOC4CCCC4)nn23)cs1 [N-(2-(cyclopentyloxy)ethyl)-3-(thiophen-3-yl)imidazo[1,2-b]pyridazin-6-amine] |  | ≤ 100
CC(C)NC(=O)N1CCN(c2ccc3ncc(-c4ccccc4)n3n2)CC1 [N-Isopropyl-4-(3-phenylimidazo[1,2-b]pyridazin-6-yl)piperazine-1-carboxamide] |  | ≤ 10
COc1cnccc1-c1cnc2ccc(NC3CCCCC3)nn12 [N-cyclohexyl-3-(3-methoxypyridin-4-yl)imidazo[1,2-b]pyridazin-6-amine] |  | ≤ 10
CC(C)OC(=O)N(C)[C@H]1CCN(c2ccc3ncc(Br)n3n2)C1 [[(S)-1-(3-Bromo-imidazo[1,2-b]pyridazin-6-yl)-pyrrolidin-3-yl]-methyl-carbamic acid isopropyl ester] |  | ≤ 10
CCOC(=O)N1CCN(c2ccc3ncc(C(=O)NC)n3n2)CC1 [ethyl 4-(3-(methylcarbamoyl)imidazo[1,2-b]pyridazin-6-yl)piperazine-1-carboxylate] |  | ≤ 100
CC(=O)c1cnc2ccc(N3CCN(C(=O)OC(C)C)CC3)nn12 [isopropyl 4-(3-acetylimidazo[1,2-b]pyridazin-6-yl)piperazine-1-carboxylate] |  | ≤ 100
COC(=O)c1cnn(-c2ccc3ncc(-c4cccnc4OC)n3n2)c1 [methyl 1-(3-(2-methoxypyridin-3-yl)imidazo[1,2-b]pyridazin-6-yl)-1H-pyrazole-4-carboxylate] |  | ≤ 10
COc1ncccc1-c1cnc2ccc(N3CC(N(C)C(=O)OC(C)(C)C)C3)nn12 [tert-butyl (1-(3-(2-methoxypyridin-3-yl)imidazo[1,2-b]pyridazin-6-yl)azetidin-3-yl)(methyl)carbamate] |  | ≤ 1000
